Holding throughout (type): physicochemical
Data set [1] in a line: Stability under protic acidic conditions in 5% p-TsOH/MeOH. The protocol: (§1) The stability of these alkoxysilyl ethers appeared to be determined by the steric bulk around the silicon atom. While 34a was not very stable (t1/2˜6 min) under the acidic reaction conditions, 34b (t1/2˜4 h) was moderately stable, and the tert-butyl-phenyl-1H,1H,2H,2H-heptadecafluorodecyloxysilyl ether 37a (t1/2>>6 h) was very stable. […] As a result of the enhanced electrophilicity of the silicon atom in bis-alkoxysilyl ethers, the latter are generally more labile toward nucleophiles and bases than either the TBDPS or the tert-butyldimethylsilyl (TBDMS) groups. […] In contrast, the stability under protic acidic conditions in 5% p-TsOH/MeOH (t1/2˜40 min) is more limited.

The nature of data set [2]: Stability in THF-d8 / 0.25 M NaOD (3:1), determined by 1H NMR. The settings on record: THF-d8 and 0.25 M NaOD (3:1). The protocol: as §1
Data set [3] is described as follows: Stability of fluorous alkoxysilyl ethers in CH2Cl2/trifluoroacetic acid (5%), remaining ether analysed by LC-MS. The settings on record: aliquots quenched with MeOH/pyridine (20:1). The protocol: Fluorous alkoxysilyl ethers (34a,b, 37a) were each dissolved in a mixture of CH2Cl2/trifluoroacetic acid (5%), and aliquots of these solutions were quenched with MeOH/pyridine (20:1). The quenched reaction mixtures were analyzed for remaining 34a,b and 37a by LC-MS (Liquid chromatography-mass spectrometry). Reactions and quenching were performed on a HP 7868 solution phase synthesizer. Analysis of quenched samples was done with a HP 1100 series LC/MS. Samples eluted were compared with unreacted control samples. (Rt [min]: 2.6 (34a), 2.9 (34b), 2.3 (37a); Novapak C18, 3.9×150 mm, 1.2 mL/min, MeOH as eluent).
as §1
Reactions and quenching were performed on a HP 7868 solution phase synthesizer. […]

SMILES strings stand for the structures.

As to `CC(C)(C)[Si](OCCC(F)(F)C(F)(F)C(F)(F)C(F)(F)C(F)(F)C(F)(F)C(F)(F)C(F)(F)F)(OC1CCCCC1)c1ccccc1` (stereo not drawn) [37a, tert-butyl-phenyl-1H,1H,2H,2H-heptadecafluorodecyloxysilyl ether], the “t1/2 under protic acidic conditions” value in data set [1] is given as around 40 min. Further, in data set [2], the “t1/2 in mildly basic aqueous medium” value turned out to be 48 h. In addition, the “t1/2 under the acidic reaction conditions” value in data set [3] is listed as above 6 h.
